Measured values as given in patent publication US20130217778A1, “METHODS AND COMPOSITIONS FOR THE IMPROVEMENT OF SKELETAL MUSCLE FUNCTION IN A MAMMAL” (priority 2010, published 2013).

Experiments:
Type in all cases: cell-based
[1] = tested on: human Duchenne muscular dystrophy (DMD) muscle tissue (mBAM); assay: MFAS fatigue assay of human DMD mBAMs; details: low concentrations, FIGS. 10A-10C
Protocol: (§1) High glucose tissue culture medium (4.5 g/l) was used in all experiments to maintain glucose levels well above normal human blood plasma levels (0.9 to 1.8 g/l) and, thereby, minimize drug action through increased glucose availability to the muscle cells. Varying concentrations of metformin (Sigma-Aldrich Cat. No. D15,095-9; 1,1-dimethylbiguanide hydrochloride) were added to tissue culture medium of mBAMs when the mBAMs had reached a plateau of maximal tetanic force, which was measured in a MyoForce Analysis System (MFAS™) 24 hours later. Every 24 hours, fresh metformin was added to fresh tissue culture medium, and tetanic forces were measured every 24 hours for 3-4 days. Fatigue was assayed after 3-4 days of metformin treatment by 15-20 repetitive tetanic stimulations of each mBAM at 14V, 60 Hz for 2 seconds every 4-5 seconds. Force is determined after each stimulation and compared to the initial force determined after the first stimulation relative to untreated controls. (Mean±S.E.M. of 3-8 samples per group was calculated and statistical analyses performed by t-tests.)
The immortalized muscle cells were tissue engineered into contractile muscle tissue (mBAMs), and muscle force and fatigue were measured as described above. High glucose tissue culture medium (4.5 g/l) was used to maintain glucose levels well above normal human blood plasma levels (0.9 to 1.8 g/l) and, thereby, minimize drug action through increased glucose availability to the muscle cells. […] Every 24 hours, fresh biguanide was added in fresh medium and tetanic force measured for a total of 3-4 days.

[2] = tested on: normal mouse skeletal muscle tissue (mBAM); assay: MFAS tetanic force of mBAMs from normal mouse leg muscle cells
Protocol: as §1
High glucose tissue culture medium (4.5 g/l) was used in all experiments to maintain glucose levels well above normal human blood plasma levels (0.9 to 1.8 g/l) and, thereby, minimize drug action through increased glucose availability to the muscle cells.

[3] = tested on: human Duchenne muscular dystrophy (DMD) muscle tissue (mBAM); assay: MFAS tetanic force of mBAMs from immortalized Duchenne muscular dystrophy muscle cells; details: 3-4 days of exposure, FIGS. 9A, 9B, 9D
Protocol: as §1
The immortalized muscle cells were tissue engineered into contractile muscle tissue (mBAMs), and muscle force and fatigue were measured as described above. […] Every 24 hours, fresh biguanide was added in fresh medium and tetanic force measured for a total of 3-4 days.

[4] = tested on: normal human muscle tissue (mBAM); assay: MFAS tetanic force of mBAMs from normal human vastus lateralis muscle cells; details: 3-4 days of exposure, FIGS. 7A-7D
Protocol: as §1

[5] = tested on: mdx murine skeletal muscle tissue (mBAM); assay: MFAS fatigue assay (repetitive tetanic stimulation) of mdx mouse mBAMs; details: repetitive tetanic stimulation after 3-4 days of treatment, FIG. 4B
From the text: (§2) Conditionally immortalized skeletal muscle cells from the mdx mouse muscle (Morgan et al., Dev Biol. 162: 486-498, 1994) were tissue engineered into contractile muscle tissue (mBAMs), as described herein. (See also, e.g., Vandenburgh et al., Muscle and Nerve 37: 438-447, 2008; Vandenburgh et al., Treat NMD Meeting, 2009). Briefly, several hundred thousand proliferating myoblasts were mixed with a solution of extracellular matrix (collagen or fibrin) and pipetted into custom wells containing two flexible “posts” (FIG. 1A). The cell/matrix mixture gelled around the tops of the posts, forming a defined tubular structure (FIG. 1B). […] Maximal tetanic force (i.e., muscle strength) was measured by imaging the deflection of the attachment posts and converting the distance of deflection into force, as illustrated in FIGS. 2A-2B.
(§3) High glucose tissue culture medium (4.5 g/l) was used in all experiments to maintain glucose levels well above normal human blood plasma levels (0.9 to 1.8 g/l) and, thereby, minimize drug action through increased glucose availability to the muscle cells. Varying concentrations of metformin (Sigma-Aldrich Cat. No. D15,095-9; 1,1-dimethylbiguanide hydrochloride) were added to tissue culture medium of mBAMs when the mBAMs had reached a plateau of maximal tetanic force, which was measured in a MyoForce Analysis System (MFAS™) 24 hours later. […]

[6] = tested on: mdx murine muscle tissue (mBAM); assay: MFAS maximal tetanic force of mBAMs from mdx mouse muscle cells; details: low concentrations experiment, four days of exposure, FIG. 4A
From the text: as §2, §3

| Compound | effect on the rate of muscle fatigue with repetitive stimulations [1] | concentration that significantly increased tetanic force ([2]; after 3 days of treatment, FIG. 5C) [µg/mL] | concentrations that increased tetanic force generated by the muscle tissue [3] [µg/mL] | concentrations that increased tetanic force generated by the muscle tissue [4] | concentration that increased tetanic force generated by the muscle tissue ([2]; 3-4 days of exposure, FIGS. 5A-5B) [µg/mL] | concentration that significantly decreased the rate of muscle fatigue [5] [µg/mL] | concentration that significantly increased maximal tetanic force generated by mBAM muscle tissue [6] [µg/mL] |
| --- | --- | --- | --- | --- | --- | --- | --- |
| N=C(N)NC(=N)NCCc1ccccc1 [phenformin, Phenformin] | decreased the rate of muscle fatigue |  |  |  |  |  |  |
| CC(C)NC(=N)NC(=N)Nc1ccc(Cl)cc1 [proguanil, 1-(4-chlorophenyl)-5-isopropyl-biguanide] |  | 0.001 | ≤ 0.00006 | less than 0.0001 μg/ml |  |  |  |
| CCCCNC(=N)NC(=N)N [buformin, Buformin] | decreased the rate of muscle fatigue |  |  | less than 0.1 μg/ml |  |  |  |
| CN(C)C(=N)NC(=N)N [metformin, 1,1-dimethylimido-dicarbonimidic diamide] | decreased the rate of muscle fatigue |  |  |  | 0.0006 | 0.000001 | 0.0006 |
